Structures can show the parent of a compound that is named as a salt.
Columns and labels:
Type in all cases: functional, cell-based
P388 = test: Cytotoxicity against mouse p388 cells assessed as reduction in cell viability after 72 hrs by MTT assay; conditions: P388, 72 h
A549 = test: Cytotoxicity against human A549 cells assessed as reduction in cell viability after 72 hrs by MTT assay; conditions: A549, 72 h
HT-29 = test: Cytotoxicity against human HT-29 cells assessed as reduction in cell viability after 72 hrs by MTT assay; conditions: HT-29, 72 h

Row | SMILES | IC50 (P388) [µM] | IC50 (A549) [µM] | IC50 (HT-29) [µM]
1 | CC(C)C[C@H]1OC(=O)CCNC(=O)[C@H](C)NC(=O)[C@H](C(C)C)N(C)C(=O)[C@H](C(C)C)NC(=O)[C@@H]2[C@@H](C)CCN2C1=O | > 20 | 17.5 | > 20
2 | CC(C)C[C@H]1OC(=O)CCNC(=O)[C@H](C)N(C)C(=O)[C@H](C(C)C)N(C)C(=O)[C@H](C(C)C)NC(=O)[C@@H]2[C@@H](C)CCN2C1=O | 8.4 | 10.3 | 3.4
3 | C=CC[C@H]1OC(=O)CCNC(=O)[C@H](C)N(C)C(=O)[C@H](C(C)C)N(C)C(=O)[C@H](C(C)C)NC(=O)[C@@H]2[C@@H](C)CCN2C1=O | 17 | 15.6 | 7.8
4 | COc1cccc2c1C(=O)c1c(O)c3c(c(O)c1C2=O)C[C@@](O)(C(=O)CO)C[C@@H]3O[C@H]1C[C@H](N)[C@H](O)[C@H](C)O1 [DOXORUBICIN HYDROCHLORIDE] | 0.3 | 2.3 | 1.8
5 | CC(C)[C@@H]1NC(=O)[C@@H]2[C@@H](C)CCN2C(=O)[C@@H](C[C@@H](O)CO)OC(=O)CCNC(=O)[C@H](C)N(C)C(=O)[C@H](C(C)C)N(C)C1=O | 19.1 | 8.8 | 16.7

Source: ChEMBL document CHEMBL4673349, “Trichodestruxins A-D: Cytotoxic Cyclodepsipeptides from the Endophytic Fungus Trichoderma harzianum” (J Nat Prod, 2020)
